Experiments:
OR5P3 = target: T1, OR5P3 (Homo sapiens, UniProt Q8WZ94); test: Screening for OR5P3 antagonist (luciferase assay, 2-heptanone as receptor-activating substance); format: cell-based; settings: inhibition of OR5P3 response to 2-heptanone (1000 μM); test substance 0.3-100 μM; HEK293T cells expressing OR5P3
T1 construct: host or cells: HEK293T
T1 sequence (Q8WZ94 with tags, fused parts or gaps): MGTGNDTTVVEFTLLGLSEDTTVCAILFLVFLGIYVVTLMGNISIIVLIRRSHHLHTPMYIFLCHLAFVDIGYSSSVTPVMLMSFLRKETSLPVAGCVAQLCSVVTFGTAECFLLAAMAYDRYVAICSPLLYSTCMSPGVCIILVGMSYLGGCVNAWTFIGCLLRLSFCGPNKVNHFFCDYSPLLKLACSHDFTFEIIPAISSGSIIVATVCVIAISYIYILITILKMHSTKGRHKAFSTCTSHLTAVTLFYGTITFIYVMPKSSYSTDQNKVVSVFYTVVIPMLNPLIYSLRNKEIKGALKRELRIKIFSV
Procedure: The expression vector mixture was allowed to stand for 20 minutes in a laminar flow cabinet and then added to HEK293T cells inoculated in 10-cm petri dishes the day before (2.5 to 3.5×10^6 cells/10-cm petri dish). After incubation for 5 hours in an incubator maintained at 37° C. and 5% CO2, the HEK293T cells were inoculated into each well of a 96-well plate (BD) in a volume of 100 μl (2.5×10^6 cells/ml), and cultured overnight in an incubator maintained at 37° C. and 5% CO2. […] As a control, the same procedure was performed by using the empty vector Rho-pME18S instead of the expression vector for human olfactory receptor in the expression vector mixture to obtain culture of the HEK293T cells transfected with the empty vector Rho-pME18S (hereinafter also referred to as the “control cells”).
The medium was removed from the culture of HEK293T cells expressing OR5P3 obtained in the section <1-2> mentioned above, and 60 μl of a mixed solution of a test substance and 2-heptanone (containing 100 μM test substance and 1000 μM 2-heptanone) or 60 μl of a 2-heptanone solution (containing 1000 μM 2-heptanone) was added to obtain a reaction solution. The solutions were prepared by dissolving the substances in CD293 (Life Technologies, Inc.). The cells were incubated in a CO2 incubator at 37° C. for 3 hours so that the firefly luciferase gene was sufficiently expressed in the cells. The value of luminescence derived from firefly luciferase in the cells was measured and designated as “Luc value”. The value of luminescence derived from firefly luciferase was measured by using Dual-Go™ Luciferase Assay System (Promega) according to the operation manual of the product.
Receptor response inhibition ratio of the test substance was calculated as follows. The Luc value (Y) in the cells not stimulated with 2-heptanone was subtracted from the Luc value (X) in the cells stimulated with 2-heptanone alone. Similarly, the Luc value (Y) in the cells not stimulated with 2-heptanone was subtracted from the Luc value (Z) in the cells stimulated with a mixture of 2-heptanone and the test substance. The receptor response inhibition ratio of the test substance was calculated in accordance with the following equation using the increase in value of luminescence caused by stimulation with 2-heptanone alone (X Y) as the standard. The experiment was performed in duplicate, and an average value was obtained.
The concentration of the test substance was 0.3, 1, 3, 10, 30, or 100 μM. The response of the receptor to 2-heptanone (1000 μM) in the presence of each concentration of the test substance was measured and represented as the relative response intensity based on the response intensity of the receptor to 2-heptanone (1000 μM) observed in the absence of the test substance, which was taken as 100%.

[1] = Test Example 3: sensory evaluation of citral-derived degradation odor-masking effect; format: in vivo; settings: score 0 to 10 (0 normal sample, 5 normal:degraded 1:1, 10 degraded sample); 100 ppm citral aqueous solution stored at 44° C. for two weeks; added ppm: decadienal 0.002, nonadienal 0.002, 2-methylbenzenethiol 0.165, S-(2-methyl-3-furyl) ethanethioate 0.120, piperine 6.667, nootkatone 10.000, sclareol 16.667; average of two experts
Procedure: A 100 ppm citral aqueous solution (stored under refrigeration after preparation) was used as a normal sample. This solution was stored at 44° C. for two weeks to generate a degraded odor derived from citral, and was used as a degraded sample. Evaluation samples were prepared by adding each of the compounds shown in Table 5 to the degraded sample at the concentrations shown in the same.
The citral-derived degradation odor intensity was scored as 0 to 10 on the basis of the following evaluation criteria. […] On the basis of the citral-derived degradation odor intensity, the citral-derived degradation odor-masking effect was evaluated.
• 0: Citral-derived degradation odor intensity of the normal sample • 5: Citral-derived degradation odor intensity of a mixture of the normal sample and degraded sample (normal sample:degraded sample=1:1) • 10: Citral-derived degradation odor intensity of the degraded sample

[2] = Test Example 4: sensory evaluation of lemon-derived degradation odor-masking effect (single compounds); format: in vivo; settings: score 0 to 10 (0 normal sample, 5 normal:degraded 1:1, 10 degraded sample); lemon beverage stored at 44° C. for 2 weeks; added ppm: decadienal 0.002, nonadienal 0.002, 2-methylbenzenethiol 0.165, S-(2-methyl-3-furyl) ethanethioate 0.120, piperine 6.667, nootkatone 10.000, sclareol 16.667; average of 2 experts
Procedure: A commercially available lemon beverage (Chelate Lemon W Lemon (Pokka Sapporo), stored under refrigeration after purchased) was used as a normal sample. This lemon beverage was stored at 44° C. for 2 weeks to generate a lemon-derived degradation odor and was used as a degraded sample. Evaluation samples were prepared by adding each of the compounds shown in Table 6 to the degraded sample at the concentrations shown in the same.
The lemon-derived degradation odor intensity was scored as 0 to 10 on the basis of the following evaluation criteria. […] On the basis of the lemon-derived degradation odor intensity, the lemon-derived degradation odor-masking effect was evaluated.
• 0: Lemon-derived degradation odor intensity of the normal sample • 5: Lemon-derived degradation odor intensity of a mixture of the normal sample and degraded sample (normal sample:degraded sample=1:1) • 10: Lemon-derived degradation odor intensity of the degraded sample

olfactory receptor OR5P3 = target: T2, olfactory receptor OR5P3 (Homo sapiens, UniProt Q8WZ94); test: Luciferase reporter gene assay: response of human olfactory receptors to 4-methylacetophenone; format: cell-based
T2 construct: host or cells: HEK293T
T2 sequence (Q8WZ94 with tags, fused parts or gaps): T1 sequence (Q8WZ94 with tags, fused parts or gaps)
Text: The genes for the 352 types of human olfactory receptors were purchased from TrueClone cDNA Clone Collection (OriGene). Fragments for subcloning of the 352 types of human olfactory receptor genes were amplified by PCR using primers designed on the basis of sequence information available in GenBank and the purchased human olfactory receptor genes as the templates. Each of the amplified fragments for subcloning of the genes was subcloned into the Rho-pME18S vector (K. Kajiya et al., Journal of Neuroscience. 15 Aug. 2001, 21 (16) 6018-6025) downstream of the Rho tag sequence using the EcoRI and XhoI sites to obtain 352 types of expression vectors for human olfactory receptors.
HEK293T cells expressing each of the 352 types of olfactory receptors were prepared by the following procedure. […]
The olfactory receptors expressed by HEK293T cells conjugate with Golf to activate adenylate cyclase, and thereby increase the amount of intracellular cAMP. In this example, the olfactory receptor response was measured by using a luciferase reporter gene assay, in which the increase in intracellular cAMP amount is monitored as an increase in firefly luciferase-derived luminescence. […] In addition, value of the luminescence derived from Renilla luciferase was used as an internal standard to correct errors caused by differences in gene transfer efficiency and cell number in each well. […]

IC50 (OR5P3)	Evaluation score (citral-derived degradation odor intensity) [1]	Evaluation score (lemon-derived degradation odor intensity) [2]	SMILES	further results
67 µM			CC(C)CC(O)Cc1ccccc1 (centres unmarked)	
78 µM			CCC=CC=CC=O [2,4-Heptadienal]	
46 µM	8	8	Cc1ccccc1S [2-Methylbenzenethiol]	
65 µM			CC=C(C=O)c1ccccc1 [2-Phenyl-2-butenal]	
17 µM			SCCc1ccccc1 [2-Phenylethanethiol]	
39 µM			SCc1cccs1 [2-Thiophenemethanethiol]	
76 µM			Sc1cccs1 [2-Thiophenethiol]	
			CC(=O)c1ccc(C)cc1 [4-methylacetophenone]	response of olfactory receptor OR5P3 to 4-methylacetophenone (olfactory receptor activity) (olfactory receptor OR5P3; 300 μM and 30 μM 4-methylacetophenone, 352 types of human olfactory receptors expressed in HEK293T cells, FIGS. 1 and 2): OR5P3 showed a response; 4-methylacetophenone concentration dependency of the response of OR5P3 (fold increase) (olfactory receptor OR5P3; HEK293T cells expressing OR5P3, n=3, FIG. 3): concentration-dependent manner
49 µM			CC=Cc1ccc(OCc2ccccc2)c(OC)c1 [Benzyl isoeugenol]	
39 µM			c1coc(CSCc2ccco2)c1 [Difurfuryl sulfide]	
2 µM			CCCCCCCCC(=O)NCc1ccc(O)c(OC)c1 [N-Vanillylnonanamide]	
8.1 µM	5.5	6	C=C(C)[C@@H]1CCC2=CC(=O)C[C@@H](C)[C@]2(C)C1 [Nootkatone]	
	6	8	O=C(/C=C/C=C/c1ccc2c(c1)OCO2)N1CCCCC1 [Piperine]	
45 µM	6	6	CC(=O)Sc1ccoc1C [S-(2-Methyl-3-furyl) ethanethioate]	
	5.5	6	C=C[C@](C)(O)CC[C@@H]1[C@@]2(C)CCCC(C)(C)[C@@H]2CC[C@@]1(C)O [Sclareol]	
	5	6	CCCCC/C=C/C=C/C=O [trans, trans-2,4-Decadienal]	
	7	7.5	CCCC/C=C/C=C/C=O [trans, trans-2,4-Nonadienal]	

SMILES	IC50 (OR5P3)	Evaluation score (citral-derived degradation odor intensity) [1]	Evaluation score (lemon-derived degradation odor intensity) [2]	further results
S=C=NCc1ccccc1 [Benzyl isothiocyanate]	19 µM			
